{"source": "the METLIN SMRT retention time set (Domingo-Almenara et al. 2019)"}
{"test": "gradient 5% acetonitrile 3 min, to 50% in 2 min, to 85% in 15 min, held 3 min, 100 µL/min", "details": "column: Zorbax Extend-C18 2.1 x 50 mm; eluents: water / acetonitrile, 0.1% formic acid", "procedure,_shortened": "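The mobile phases were water and acetonitrile, each with 0.1% formic acid, pumped at 100 μL/min through a Zorbax Extend-C18 column (2.1 × 50 mm, 1.8 μm). Pure standards were injected as mixtures of ~100 molecules and detected by a quadrupole time-of-flight mass spectrometer in positive and negative ionization mode. Retention time came from computationally picked adduct peaks, each inspected by hand.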", "units": {"RP-LC retention time": "s"}}
{"smiles": "CC1(C(=O)NCc2ccc(F)cc2)CCCN(C(=O)NCc2ccccc2)C1", "note": "(centres undefined)", "RP-LC retention time": 829}
{"smiles": "Cc1ccccc1CNC(=O)C1CCN(S(=O)(=O)c2ccc3c(c2)NC(=O)CO3)CC1", "RP-LC retention time": 777}
{"smiles": "COc1cccc(N2CCN(c3ccnc(SCC(=O)Nc4ccc(Cl)cc4F)n3)CC2)c1", "RP-LC retention time": 941}
{"smiles": "Cc1sc2ccn(CC(C)C)c(=O)c2c1C(=O)NCc1cc(F)cc(F)c1", "RP-LC retention time": 1070}
{"smiles": "Cc1ccc(-c2ncc(NC(=O)c3cccs3)cn2)cc1", "RP-LC retention time": 982}
{"smiles": "COC(=O)c1cc(OCC(=O)Nc2ccccc2F)c2ccccc2n1", "RP-LC retention time": 799}
{"smiles": "CCOC(=O)COc1ccccc1C1C(C(=O)OC)=C(C)NC2=C1C(=O)c1ccccc12", "note": "(centres undefined)", "RP-LC retention time": 957}
{"smiles": "Cc1cccc(CNC2=NCCNC23CCN(S(=O)(=O)c2ccc(Cl)cc2)CC3)c1", "RP-LC retention time": 762}
{"smiles": "COc1ccc(-c2noc(-c3nc(-c4ccc(N(C)C)cc4)no3)n2)cc1OC", "RP-LC retention time": 1230}
{"smiles": "O=C(Nc1ccccc1)N1CCc2[nH]cnc2C1c1ccccn1", "note": "(centres undefined)", "RP-LC retention time": 598}
{"smiles": "Cc1cc(-c2ncc(CC(=O)Nc3ccc(-c4cnccn4)cn3)cc2C)ccn1", "RP-LC retention time": 652}
{"smiles": "CN(C)C(=O)CN1CCN(c2ccc(NC(=O)C(C)(C)C)c(C(=O)O)c2)CC1", "RP-LC retention time": 595}
{"smiles": "Cc1ncsc1C1N(C2CCN(S(=O)(=O)c3ccccc3)CC2)C(=O)C12CCCC2", "note": "(centres undefined)", "RP-LC retention time": 850}
{"smiles": "CCOc1ccccc1N1CCN(C(=O)CSc2nccnc2Oc2ccc(C)cc2)CC1", "RP-LC retention time": 1020}
{"smiles": "CC(C)c1ccc(NC(=O)C2CCCN(c3ncnc4c3nc3n4CCCCC3)C2)cc1", "note": "(centres undefined)", "RP-LC retention time": 899}
{"smiles": "O=C(NC1CCN(Cc2ccccc2)CC1)c1nnc(-c2ccc(S(=O)(=O)N3CCCC3)cc2)o1", "RP-LC retention time": 1190}
{"smiles": "COc1ccc(OC)c(NC(=O)c2c(OC)cc(=O)n3c2CCCC3)c1", "RP-LC retention time": 695}
{"smiles": "O=C(Nc1ccc2c(c1)OCO2)c1cn(-c2cc(N3CCCCC3)ncn2)cn1", "RP-LC retention time": 936}
{"smiles": "O=C(Nc1ccc(Cl)cc1F)c1cc(C2CC2)on1", "RP-LC retention time": 1090}
{"smiles": "COc1ccc(NC(=O)c2cn(-c3cc(N4CCCC(C)C4)ncn3)cn2)cc1OC", "note": "(centres undefined)", "RP-LC retention time": 973}
{"smiles": "O=C(CC1CCCCC1)N1CCN(c2ccc(=O)n(-c3ccccc3)n2)CC1", "RP-LC retention time": 857}
{"smiles": "C1=CC2(C=C1)OC21CCC2(C=CC3(C2)OC3C2CCCCC2)CC1", "note": "(centres undefined)", "RP-LC retention time": 798}
{"smiles": "CC(C)(C)C(=O)N1CCN(c2ncccc2-c2nnc(C3CC3)o2)CC1", "RP-LC retention time": 760}
{"smiles": "Cn1nc(N2CCC(NC(=O)CCn3cnnn3)CC2)ccc1=O", "RP-LC retention time": 566}
{"smiles": "Cn1c(SCC(=O)N2CCCC2)nnc1-c1ccc2c(c1)OCCCO2", "RP-LC retention time": 661}
{"smiles": "COc1ccc(S(=O)(=O)N2CCC(C(=O)Nc3ncnc4c3CCC4)CC2)cc1", "RP-LC retention time": 664}
{"smiles": "CCc1noc(C2(NC(=O)c3ccc(C#N)cc3)CCCCC2)n1", "RP-LC retention time": 896}
{"smiles": "CNC(=O)c1cc(-c2cccc(OC)c2)n[nH]1", "RP-LC retention time": 665}
{"smiles": "CCCC(=O)Nc1ccc(CCc2nc3ccc(C(=O)NCCOC)cc3[nH]2)cc1", "RP-LC retention time": 599}
{"smiles": "CN1C(=O)c2ccccc2Oc2ccc(C(=O)N3CCCCC3)cc21", "RP-LC retention time": 807}
{"smiles": "Cc1noc(C)c1-c1ccc(S(=O)(=O)NCC2CCCO2)cc1", "note": "(centres undefined)", "RP-LC retention time": 767}
{"smiles": "CCOc1ccccc1NC(=O)Cn1ccc2ccc(-c3nnc(CC)o3)cc21", "RP-LC retention time": 928}
{"smiles": "COc1ccc2[nH]cc(CCN3CC(C(=O)N4CCc5ccccc54)CC3=O)c2c1", "note": "(centres undefined)", "RP-LC retention time": 802}
{"smiles": "Cc1ccc2c(Nc3ccc(C)c(C)c3)c(C(=O)N3CCOCC3)cnc2n1", "RP-LC retention time": 593}
{"smiles": "O=C(Nc1cccn2c(C3CCC3)nnc12)c1ccco1", "RP-LC retention time": 696}
{"smiles": "COc1ccc(C)cc1NC(=O)C1CCN(S(=O)(=O)c2ccc3c(c2)NC(=O)C(C)O3)CC1", "note": "(centres undefined)", "RP-LC retention time": 788}
{"smiles": "Cn1c(C(=O)NCCN2CCCCCC2)cc2c(-c3cccs3)nn(-c3ccccc3)c21", "RP-LC retention time": 782}
{"smiles": "O=c1ccc(N2CCCN(S(=O)(=O)c3ccc(Cl)cc3)CC2)nn1-c1ccccc1", "RP-LC retention time": 868}
{"smiles": "Cc1ccc(-c2nnc(-c3nn(C)c4c3CN(S(=O)(=O)c3c(C)n[nH]c3C)CC4)o2)cc1", "RP-LC retention time": 782}
{"smiles": "COc1ccc(-c2cn3ccn(-c4ccc(F)c(Cl)c4)c(=O)c3n2)cc1", "RP-LC retention time": 862}
{"smiles": "CCCn1nccc1-c1csc(S(=O)(=O)N2CCCC2)c1", "RP-LC retention time": 912}
{"smiles": "CCOC(=O)C(C)Oc1cccc2c(=O)n(CC(=O)NCc3ccco3)ccc12", "note": "(centres undefined)", "RP-LC retention time": 725}
{"smiles": "Cc1nnc(NC(=O)CSc2cc(N3CCCC3)ncn2)s1", "RP-LC retention time": 577}
{"smiles": "c1cn2cnnc2cc1-c1noc(-c2ccc3c(c2)OCO3)n1", "RP-LC retention time": 792}
{"smiles": "CS(=O)(=O)N1CCCN(C(=O)c2ccccc2)CC1", "RP-LC retention time": 638}
{"smiles": "COc1cccc(Cn2nc3ccc(S(=O)(=O)N4CCCCCC4)cn3c2=O)c1", "RP-LC retention time": 946}
{"smiles": "CCc1ccc(C2=C(C)C(N3CCCN(C(=O)C(C)(C)C)CC3)=NS2(=O)=O)cc1", "RP-LC retention time": 901}
{"smiles": "NC(=O)[C@H]1CCCCc2c1[nH]c1ccc(Cl)cc21", "RP-LC retention time": 819}
{"smiles": "Cc1cc(C)cc(-c2nnc(Cc3nc(-c4ccc(Br)cc4)no3)o2)c1", "RP-LC retention time": 1270}
{"smiles": "Cc1ccc(-c2ccc(-n3nc(C)c(S(=O)(=O)N4CCN(C(C)C)CC4)c3C)nn2)cc1C", "RP-LC retention time": 785}
{"smiles": "Cc1ccccc1S(=O)(=O)N1CCC2(CC1)NCCN=C2NCc1ccc(Cl)cc1", "RP-LC retention time": 741}
{"smiles": "COCC(=O)N1CCCCC1c1nncn1Cc1ccccc1", "note": "(centres undefined)", "RP-LC retention time": 612}
{"smiles": "CCOc1ccccc1C(=O)N1CCC2(CC1)N=C(c1cccc(Br)c1)NO2", "RP-LC retention time": 951}
{"smiles": "Cc1cccc(Nc2ncccc2C(=O)O)c1C", "RP-LC retention time": 707}
{"smiles": "COc1c(C(=O)Nc2ccc3c(c2)OCO3)sc2ccc(Cl)cc12", "RP-LC retention time": 1180}
{"smiles": "Clc1cccc(-c2nc3ccccn3c2Nc2ccc3c(c2)OCCO3)c1", "RP-LC retention time": 715}
{"smiles": "COc1cccc(-c2ccc(=O)n(CCc3nc(-c4cccc(OC)c4OC)no3)n2)c1", "RP-LC retention time": 921}
{"smiles": "O=C(Cn1c(-c2cccs2)cc2cc(Cl)ccc21)N1CCN(c2ccccn2)CC1", "RP-LC retention time": 809}
{"smiles": "CNC(=O)CN(C)C(=O)C1CCCCc2nnc(C(C)C)n21", "note": "(centres undefined)", "RP-LC retention time": 542}
{"smiles": "CCc1nc(-c2csc(S(=O)(=O)N3CCC(C(=O)Nc4ccc(Cl)cc4)CC3)c2)no1", "RP-LC retention time": 1070}
{"smiles": "COc1ccc(Cl)cc1S(=O)(=O)N1C[C@@H]2C[C@H]1C[C@@H]2NC(=O)c1ccccc1", "RP-LC retention time": 873}
{"smiles": "Cc1ccc(NC(=O)Cn2ccc3sccc3c2=O)c(Cl)c1", "RP-LC retention time": 802}
{"smiles": "Cn1c(C(=O)N2CCN(c3ccccn3)CC2)cc2c(=O)n(C)c3ccccc3c21", "RP-LC retention time": 562}
{"smiles": "CN(C)c1cnc(-n2cc(NC(=O)NCCc3ccccc3)cn2)nc1", "RP-LC retention time": 718}
{"smiles": "CCOc1ccccc1NC(=O)N1CCC2(CC1)N=C(c1cccc(F)c1)C(=O)N2", "RP-LC retention time": 902}
{"smiles": "CC(C)(Oc1ccc(Cl)cc1)C(=O)OCn1nnc2ccccc2c1=O", "RP-LC retention time": 1010}
{"smiles": "CCOc1cccc(CN2Cc3ccccc3OC3(CCN(CCOC)CC3)C2)c1", "RP-LC retention time": 619}
{"smiles": "CCOc1ccc(N2C=C(C(=O)N3CCOCC3)S(=O)(=O)c3ccc(Cl)cc32)cc1", "RP-LC retention time": 893}
{"smiles": "COC1C(=O)N(C2CCN(C(=O)c3cnccn3)CC2)C12CCOCC2", "note": "(centres undefined)", "RP-LC retention time": 555}
{"smiles": "Cc1cc(C)cc(NS(=O)(=O)c2cc(-c3[nH]ncc3C(=O)N(C)C)oc2C)c1", "RP-LC retention time": 718}
{"smiles": "CC(C)Cn1nc2n(c1=O)CCN(S(=O)(=O)c1ccccc1C(F)(F)F)CC2", "RP-LC retention time": 847}
{"smiles": "O=C(COc1ccc(F)cc1)Nc1ccc(-c2nc(-c3ccc(F)cc3)no2)cc1", "RP-LC retention time": 1220}
{"smiles": "COc1ccc(N2CCN(c3cc(SCC(=O)NCCC(C)C)ncn3)CC2)cc1", "RP-LC retention time": 873}
{"smiles": "CSc1nnc(-c2nn(C)c3c2CN(C(=O)CCc2ccccc2)CC3)n1C", "RP-LC retention time": 719}
{"smiles": "Cc1ccc(Sc2nccnc2N2CCC(C(=O)NCc3ccccc3C)CC2)cc1", "RP-LC retention time": 1150}
{"smiles": "CCOc1ccc(N(C)C(=O)C2CCN(S(=O)(=O)c3ccc4c(c3)sc(=O)n4C)CC2)cc1", "RP-LC retention time": 885}
{"smiles": "CCc1cccc(NC(=O)Nc2c(-c3ccncc3)nc3ccccn23)c1", "RP-LC retention time": 630}
{"smiles": "O=C(c1ccc(-c2nccnc2N2CCCC2)cc1)N1CCC(Cc2ccccc2)CC1", "RP-LC retention time": 1110}
{"smiles": "CCOC(=O)c1ccc(NC(=O)CN2CCC(C)CC2)cc1", "RP-LC retention time": 561}
{"smiles": "O=C1C(N2CCN(S(=O)(=O)c3ccc(Cl)cc3)CC2)CCN1CCc1ccccc1", "note": "(centres undefined)", "RP-LC retention time": 718}
{"smiles": "O=C(Nc1ccc([N+](=O)[O-])cc1O)Nc1ccccc1Br", "RP-LC retention time": 914}
{"smiles": "O=C(Nc1cc(-c2ccccn2)no1)c1ccoc1", "RP-LC retention time": 713}
{"smiles": "O=C(Cn1nc2c3cc(-c4ccccc4)nn3ccn2c1=O)NC1CCCCC1", "RP-LC retention time": 873}
{"smiles": "O=C(CCn1cnc2cc(-c3noc(-c4ccccc4Br)n3)ccc21)N1CCOCC1", "RP-LC retention time": 743}
{"smiles": "CC(C)CCNC(=O)c1cc2c(s1)N(C)CCC2", "RP-LC retention time": 928}
{"smiles": "Cc1ccc(-c2nnc(-c3cccc(S(=O)(=O)NCC4CCCO4)c3)o2)cc1", "note": "(centres undefined)", "RP-LC retention time": 918}
{"smiles": "COCc1cc(=O)n(Cc2cc(C)ccc2C)c(N2CCCC2)n1", "RP-LC retention time": 912}
{"smiles": "COc1ccc(-c2csc(CN3CCN(C(=O)C4CC4)CC3)n2)cc1", "RP-LC retention time": 599}
{"smiles": "CCc1cc(N2CCN(C(=O)c3ccc4c(c3)OCO4)CC2)nc2nnc(C)n12", "RP-LC retention time": 607}
